The structures appear in SMILES notation. Like-named read-outs stand apart in the source and are kept apart here.

Data set [1] addresses recombinant HIV-1 reverse transcriptase (rRT) (Human immunodeficiency virus type 1 group M subtype B, UniProt P04585). The data set is described as follows: Quan-T-RT cell-free assay of recombinant HIV-1 reverse transcriptase activity. Type of data set: biochemical. On the procedure: In addition, the activity of the test compounds to inhibit recombinant HIV-1 reverse transcriptase (rRT) activity was determined using the Quan-T-RT assay system (Amersham, Arlington Heights, Ill.), which utilizes the scintillation proximity assay principle. […] Data for both bioassays is reported as IC50 values.

The next data set concerns HIV-1 strain HTLVIIIB
Briefly: p24 enzyme immunoassay of HIV replication in HTLVIIIB-infected peripheral blood mononuclear cells. Type of data set: cell-based. How it is done:
The HIV-1 strain HTLVIIIB (kindly provided by Dr. Neal T. Wetherall, VIROMED Laboratories, Inc.), was propagated in CCRF-CEM cells, and used in in vitro assays of the anti-HIV-1 activity of the synthesized novel derivatives. Cell-free supernatants of HTLVIIIB-infected CCRF-CEM cells were harvested, dispensed into 1 ml aliquots, and frozen at −70° C.
The incubated cells were then exposed to HIV-1 at a multiplicity of infection (MOI) of 0.1 during a one-hour adsorption period at 37° C. in a humidified 5% CO2 atmosphere. […] Aliquots of culture supernatants were removed from the wells on the 7th day after infection for p24 antigen assays. […] Ag.
The applied p24 enzyme immunoassay (EIA) was the unmodified kinetic assay commercially available from Coulter Corporation/Immunotech, Inc. (Westbrooke, Me.). In the assay, a murine monoclonal antibody against HIV core protein is coated onto microwell strips. Antigen (HIV core protein) present in the test culture supernatant samples binds the antibody and the bound antibody-antigen complex is quantitated. Percent viral inhibition was calculated by comparing the p24 values from the test substance-treated infected cells with p24 values from untreated infected cells (i.e., virus controls).

The subject of another data set is non-infected PBMNC. Briefly: Microculture Tetrazolium Assay (MTA) of cell viability. The class given is cell-based, human. Conditions: for IC50: Table 7, concentration decreasing cellular proliferation by 50%. How it is done: (§1) Ag. […] In brief, non-infected PBMNC were treated with test compounds or controls for 7 days under identical experimental conditions and 2,3-bis(2-methoxy-4-nitro-5-sulfophenyl)-5-[(phenylamino)-carbonyl]-2H-tetrazolium hydroxide ([…]), was added to quantitative cellular proliferation.

Experiment in data set [2]: as above
Type of data set: cell-based, human. The conditions noted are these: human; for CC50 at 7 days: non-infected PBMNC, Table 4. On the procedure: as §1

[3] abbreviates: Table 4, DABO compounds, purified recombinant HIV RT, read-out: IC50 [rRT].
Setting [4] is: Table 6, recombinant HIV reverse transcriptase assay, read-out: IC50 rRT.
Setting [5] is: Table 7, HIV-infected peripheral blood mononuclear cells, read-out: IC50 [p24].
Setting [6] is: Human immunodeficiency virus 1, PBMC, read-out: IC50 [p24].
Setting [7] is: Table 5, HIV-infected PBMNC, read-out: IC50 p24.
Setting [8] is: Human immunodeficiency virus 1, PBMC, Table 6, read-out: IC50 p24.
Where [9] appears, read: Human immunodeficiency virus 1, PBMC, HIV-infected human peripheral blood mononuclear cells, read-out: IC50 for inhibition of HIV replication (p24 production).

Regarding `Cc1cn([C@H]2C[C@H](N=[N+]=[N-])[C@@H](CO)O2)c(=O)[nH]c1=O` [AZT, reference compound], the IC50 is greater than 100 µM in data set [1] (setting [3]); greater than 100 µM in data set [1] (setting [4]); 0.008 µM in the data set with HIV-1 strain HTLVIIIB (3 of 3 independent experiments for I-4, read-out: IC50 anti-HIV activity (p24)); 0.04 µM in the data set with HIV-1 strain HTLVIIIB (Table 4, HTLVIIIB-infected peripheral blood mononuclear cells, read-out: IC50 [p24]); 0.004 µM with HIV-1 strain HTLVIIIB (Table 6, read-out: IC50 p24); 0.004 µM with HIV-1 strain HTLVIIIB (setting [5]). In addition, in the data set on non-infected PBMNC, inhibition was half-maximal at 50 µM (IC50). In the data set with non-infected PBMNC (Table 4), this compound came in with a CC50 of 50 µM.

Take `CSCSc1nc(Cc2ccccc2)c(C)c(=O)[nH]1` [Compound 3a, 5-methyl-2-[(methylthiomethyl)thio]-6-benzyl-pyrimidin-4-1H-one]: the figures for the half-maximal inhibitory concentration (IC50) (in data set [1] (setting [3]); with HIV-1 strain HTLVIIIB (setting [6])) were 18.8 µM and 4.5 µM, respectively. Besides, the CC50 at 7 days in data set [2] was greater than 100 µM.

With `CCc1c(Cc2ccccc2)nc(SCSC)[nH]c1=O` [Compound 3b, 5-ethyl-2-[(methylthiomethyl)thio]-6-benzyl-pyrimidin-4-1H-one], the figures for the IC50 (in data set [1] (setting [3]); with HIV-1 strain HTLVIIIB (setting [6])) were 9.7 µM and 0.8 µM, respectively. Besides, the CC50 at 7 days in data set [2] was greater than 100 µM.

On to `CSCSc1nc(Cc2ccccc2)c(C(C)C)c(=O)[nH]1` [Compound 3c, 5-isopropyl-2-[(methylthiomethyl)thio]-benzyl-pyrimidin-4-1H-one], for which the “selectivity index (IC50[MTA]/IC50[p24])” value with HIV-1 strain HTLVIIIB is reported as > 100,000. The “fold more active than AZT and MKC-442” value in the data set with HIV-1 strain HTLVIIIB (HIV replication) is recorded as “more than 4 fold”. Besides, the IC50 with HIV-1 strain HTLVIIIB (setting [6]) was less than 0.001 µM; in the data set on HIV-1 strain HTLVIIIB (Human immunodeficiency virus 1, PBMC, read-out: IC50 for inhibition of HIV replication (p24 production)), less than 0.001 µM. Further, the “inhibition of cellular proliferation as measured by MTA” value in the data set with non-infected PBMNC (no detectable cytotoxicity) was greater than 100 µM. In data set [2], this compound yielded a CC50 at 7 days greater than 100 µM.

Turning to `CSCSc1nc(Cc2cc(C)cc(C)c2)c(C(C)C)c(=O)[nH]1` [Compound 3d, 5-isopropyl-2-[(methylthiomethyl)thio]-6-(3,5-dimethylbenzyl)-pyrimidin-4-1H-one], the IC50 in data set [1] (setting [3]) was 4.8 µM.

On to `S=C(NCCc1ccccn1)Nc1ccccn1` [Compound I-1, N-[2-(2-pyridylethyl)]-N′-[2-(pyridyl)]-thiourea], for which, in the data set on HIV-1 strain HTLVIIIB (setting [7]), the IC50 worked out at 0.23 µM.

In the case of `S=C(NCCN1CCCCC1)Nc1ccc(Br)cn1` [Compound I-3, N-[2-(1-piperidinoethyl)]-N′-[2-(5-bromopyridyl)]-thiourea], the concentration for half-maximal inhibition (IC50) in the data set with HIV-1 strain HTLVIIIB (setting [7]) was less than 0.001 µM.

Regarding `COc1ccc(OC)c(CCNC(=S)Nc2ccc(Br)cn2)c1` [Compound I-4, N-[2-(2,5-dimethoxyphenylethyl)]-N′-[2-(5-bromopyridyl)]-thiourea], the melting point fell in the range of 133 to 138 °C. Moreover, in data set [1], the “times more potent than trovirdine against recombinant HIV RT” value came out at 8. In the data set on HIV-1 strain HTLVIIIB (Human immunodeficiency virus 1, PBMC, 3 of 3 independent experiments for I-4, read-out: IC50 anti-HIV activity (p24)), the IC50 is less than 0.001 µM. Moreover, in the data set on HIV-1 strain HTLVIIIB (Human immunodeficiency virus 1, PBMC, Table 5, HIV-infected PBMNC, read-out: IC50 p24), the IC50 was less than 0.001 µM.

In turn, `COc1ccccc1CCNC(=S)Nc1ccc(Br)cn1` [II-1, N-[2-(2-methoxyphenethyl)]-N′-[2-(5-bromopyridyl)]-thiourea] had a melting point of 143 to 145 °C. Moreover, in data set [1], the IC50 was found to be 1 µM. Further, in the data set on HIV-1 strain HTLVIIIB (setting [8]), the IC50 was 0.01 µM.

For the compound `Fc1ccccc1CCNC(=S)Nc1ccc(Br)cn1` [II-2, N-[2-(2-fluorophenethyl)]-N′-[2-(5-bromopyridyl)]-thiourea], the melting point was in the range of 156 to 157 °C. For the same compound, the IC50 in data set [1] was found to be 0.6 µM. The IC50 in the data set on HIV-1 strain HTLVIIIB (setting [9]) was less than 0.001 µM. Moreover, in the data set on HIV-1 strain HTLVIIIB (setting [8]), the IC50 was less than 0.001 µM.

Compound `S=C(NCCc1ccccc1Cl)Nc1ccc(Br)cn1` [II-3, N-[2-(2-chlorophenethyl)]-N′-[2-(5-bromopyridyl)]-thiourea] showed a melting point of 137 to 139 °C. The IC50 in data set [1] is 0.7 µM. Besides, in the data set with HIV-1 strain HTLVIIIB (setting [9]), the IC50 was less than 0.001 µM. For the same compound, the IC50 with HIV-1 strain HTLVIIIB (setting [8]) is less than 0.001 µM.

Compound `COc1cccc(CCNC(=S)Nc2ccc(Br)cn2)c1` [II-4, N-[2-(3-metboxyphenethyl)]-N′-[2-(5-bromopyridyl)]-thiourea] gave a melting point of 155 to 156 °C. In data set [1], the IC50 turned out to be 0.4 µM and the “times more potent than trovirdine against recombinant HIV RT” value is on record as “approximately 2”. Also, in the data set on HIV-1 strain HTLVIIIB, the “selectivity index (IC50[MTA]/IC50[p24])” value is > 3×10^4. For the same compound, the IC50 with HIV-1 strain HTLVIIIB (setting [9]) amounted to 0.003 µM. In addition, in the data set on HIV-1 strain HTLVIIIB (setting [8]), the IC50 was determined as 0.003 µM.

Compound `Fc1cccc(CCNC(=S)Nc2ccc(Br)cn2)c1` [II-5, N-[2-(3-fluorophenethyl)]-N′-[2-(5-bromopyridyl)]-thiourea] yielded a melting point of 171 to 172 °C. Besides, in data set [1], the IC50 turned out to be 0.7 µM. Besides, the IC50 in the data set with HIV-1 strain HTLVIIIB (setting [9]) is less than 0.001 µM. The 50% inhibitory concentration (IC50) with HIV-1 strain HTLVIIIB (setting [8]) was less than 0.001 µM.

With `S=C(NCCc1cccc(Cl)c1)Nc1ccc(Br)cn1` [II-6, N-[2-(3-chlorophenethyl)]-N′-[2-(5-bromopyridyl)]-thiourea], the melting point lay in the range of 163 to 165 °C. For the same compound, the IC50 in data set [1] (setting [4]) amounted to 3.1 µM.

For the compound `COc1ccc(CCNC(=S)Nc2ccc(Br)cn2)cc1` [II-7, N-[2-(4-methoxyphenethyl)]-N′-[2-(5-bromopyridyl)]-thiourea], the melting point was in the range of 178 to 179 °C. Further, the IC50 with HIV-1 strain HTLVIIIB (setting [9]) turned out to be 0.015 µM. Moreover, the IC50 in the data set with HIV-1 strain HTLVIIIB (setting [8]) was 0.015 µM.

In turn, `Fc1ccc(CCNC(=S)Nc2ccc(Br)cn2)cc1` [II-8, N-[2-(4-fluorophenethyl)]-N′-[2-(5-bromopyridyl)]-thiourea] gave a melting point of 177 to 178 °C. For the same compound, in data set [1], the “fold less active than meta and ortho F compounds (IC50[rRT])” value is on record as 10 fold. In addition, in data set [1] (setting [4]), the IC50 stood at 6.4 µM.

`S=C(NCCc1ccc(Cl)cc1)Nc1ccc(Br)cn1` [II-9, N-[2-(4-chlorophenethyl)]-N′-[2-(5-bromopyridyl)]-thiourea] returned a melting point of 180 to 183 °C.

As for `S=C(NCCN1CCCCC1)Nc1ccc(Br)cn1` [III-1, N-[2-(1-piperidinylethyl)]-N′-[2-(5-bromopyridyl)]-thiourea], the IC50 was less than 0.001 µM with HIV-1 strain HTLVIIIB (setting [5]) and greater than 100 µM with non-infected PBMNC.

Consider `S=C(NCCN1CCNCC1)Nc1ccc(Br)cn1` [III-2, N-[2-(1-piperizinylethyl)]-N′-[2-(5-bromopyridyl)]-thiourea], for which the IC50 is 0.002 µM with HIV-1 strain HTLVIIIB (setting [5]) and greater than 100 µM in the data set on non-infected PBMNC.

With `S=C(NCCN1CCOCC1)Nc1ccc(Br)cn1` [III-3, N-[2-(1-morpholinylethyl)]-N′-[2-(5-bromopyridyl)]-thiourea], the IC50 with HIV-1 strain HTLVIIIB (setting [5]) was less than 0.001 µM; in the data set with non-infected PBMNC, greater than 100 µM.

`CCOCn1c(Cc2ccccc2)c(C(C)C)c(=O)[nH]c1=O` [MKC-442, reference compound] showed a CC50 at 7 days in data set [2] greater than 100 µM.

As for `S=C(NCCc1ccccn1)Nc1ccc(Br)cn1` [Trovirdine, reference compound], the IC50 amounted to 0.007 µM with HIV-1 strain HTLVIIIB (setting [6]); 0.007 µM in the data set with HIV-1 strain HTLVIIIB (Human immunodeficiency virus 1, PBMC, read-out: IC50 anti-HIV activity (p24)); 0.007 µM with HIV-1 strain HTLVIIIB (Human immunodeficiency virus 1, PBMC, read-out: IC50 p24). Besides, in data set [2] (Table 7, concentration decreasing cellular proliferation by 50%), the IC50 at 7 days is greater than 100 µM.

These data come from patent US6925388B1, “Heterocyclic nonnucleoside inhibitors of reverse transcriptase” (Parker Hughes Institute, priority 1998, dated 2005).
